The target of this assay is T1, canine TRPM8 (Canis lupus familiaris, UniProt Q1A7N1).
T1 construct: expressed in transfected cells
Briefly: In Vitro Canine TRPM8 Functional Assay (Ca2+ fluorescence, icilin activation). It counts as cell-based. As to conditions: for inhibition at 0.2 µM: HEK293, 0.2 μM compound; for IC50: HEK293 cells stably expressing canine TRPM8, icilin activation, Ca2+ fluorescence; for % Inh @ 0.2 μM: 0.2 μM compound; for inhibition at 0.5 µM: HEK293, 0.5 μM compound; for % Inh @ 0.5 μM: 0.5 μM compound; for inhibition at 1 µM: HEK293, 1 μM compound. The method, then:
The functional activity of compounds of the formula (I) was determined by measuring changes in intracellular calcium concentration using a Ca^2+-sensitive fluorescent dye. The changes in fluorescent signal were monitored by a fluorescence plate reader, either a FLIPR™ (Molecular Devices) or FDSS (Hamamatsu). Increases in intracellular Ca^2+ concentration were readily detected upon activation with icilin.
HEK293 cells stably expressing canine TRPM8 were routinely grown as monolayers in Dulbecco's minimum essential medium supplemented with 10% FBS, 2 mM L-glutamine, 100 units/mL penicillin, 100 ug/mL streptomycin and 400 μg/mL G418. Cells were maintained in 5% CO2 at 37° C. At 24 hrs prior to assay, cells were seeded in black wall, clear-base poly-D-lysine coated 384-well plates (BD Biosciences, NJ, USA) at a density of 5,000 cells per well in culture medium and grown overnight in 5% CO2 at 37° C. On assay day, growth media was removed and cells were loaded with Calcium 3 Dye (Molecular Devices) for 35 min at 37° C., under 5% CO2 and then for 25 min at room temperature and atmosphere. Subsequently, cells were tested for agonist-induced increases in intracellular Ca^2+ levels using FLIPR™ or FDSS. Cells were challenged with compounds of the formula (I) (at varying concentrations) and intracellular Ca^2+ was measured for 5 min prior to the addition of icilin to all wells to achieve a final concentration that produces approximately an 80% maximal response.
Maximal fluorescence intensity (FI) achieved upon addition of icilin was exported from the FLIPR or FDSS software and further analyzed using GraphPad Prism 3.02 (Graph Pad Software Inc., CA, U.S.A.). Basal FI was subtracted prior to normalizing data to percent of maximal response. Curves were generated using the average of quadruplicate wells for each data point, were analyzed using nonlinear regression of either sigmoidal dose response or sigmoidal dose response (variable slope).

The inhibition is the relative decrease from the control value, in per cent. As a reminder, the IC50 is the point on the concentration scale where inhibition reaches its midpoint. The low end stands for higher potency, the high end for lower potency.

“And” between values parts separate entries of the source, which are not always exact repeats. Equal values may be shown once.

T1 sequence (Q1A7N1 1-1104): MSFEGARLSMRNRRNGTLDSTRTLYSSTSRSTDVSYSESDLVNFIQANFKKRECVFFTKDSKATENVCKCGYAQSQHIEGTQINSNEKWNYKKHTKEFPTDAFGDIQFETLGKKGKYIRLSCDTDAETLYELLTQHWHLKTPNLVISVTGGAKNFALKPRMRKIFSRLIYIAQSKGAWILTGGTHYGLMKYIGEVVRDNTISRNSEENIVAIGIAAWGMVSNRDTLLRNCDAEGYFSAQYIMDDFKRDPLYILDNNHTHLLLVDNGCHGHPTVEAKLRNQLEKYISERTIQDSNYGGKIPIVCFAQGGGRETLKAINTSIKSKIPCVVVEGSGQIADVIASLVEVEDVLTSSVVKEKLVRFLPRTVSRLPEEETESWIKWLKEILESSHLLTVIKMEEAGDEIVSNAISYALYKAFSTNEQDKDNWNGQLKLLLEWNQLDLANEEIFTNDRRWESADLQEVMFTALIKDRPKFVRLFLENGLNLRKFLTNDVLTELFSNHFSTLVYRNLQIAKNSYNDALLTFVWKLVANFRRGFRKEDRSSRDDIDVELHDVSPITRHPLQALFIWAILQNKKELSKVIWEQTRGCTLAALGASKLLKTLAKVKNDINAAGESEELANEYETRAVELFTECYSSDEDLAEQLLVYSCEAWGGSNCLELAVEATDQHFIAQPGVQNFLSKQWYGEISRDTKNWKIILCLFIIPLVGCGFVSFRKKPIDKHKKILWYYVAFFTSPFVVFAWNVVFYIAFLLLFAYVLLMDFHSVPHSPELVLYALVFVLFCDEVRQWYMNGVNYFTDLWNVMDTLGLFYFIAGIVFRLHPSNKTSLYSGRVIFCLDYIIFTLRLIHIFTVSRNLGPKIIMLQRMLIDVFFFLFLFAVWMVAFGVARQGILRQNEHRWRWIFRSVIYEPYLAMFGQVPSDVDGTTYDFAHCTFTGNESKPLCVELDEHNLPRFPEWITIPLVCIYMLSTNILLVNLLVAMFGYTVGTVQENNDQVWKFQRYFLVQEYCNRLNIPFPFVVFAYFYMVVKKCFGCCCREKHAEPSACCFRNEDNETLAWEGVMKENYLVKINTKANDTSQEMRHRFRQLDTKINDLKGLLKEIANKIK

`CC(C)(C)c1ccc(C(Nc2ccccc2F)C(=O)N2CCC[C@H]2c2ccccc2F)cn1` (mixture of isomers) [Cpd 355] yielded a half-inhibitory concentration (IC50) of 5 nM. Further, the inhibition at 0.2 µM (canine TRPM8 HEK293, icilin) was determined as 100%.

As for `O=C(C(Nc1ccccc1F)c1ccc(-c2cccnc2)cc1)N1CCCC1c1ccccc1F` (mixture of isomers) [Cpd 300], the half-inhibitory concentration (IC50) was 6 nM and 8 nM. For the setting “canine TRPM8 HEK293, icilin, 0.2 µM”, the “% Inh @ 0.2 μM” value is 101% and 102%.

As for `CC(C)(C)c1ccc(C(Nc2ccccc2)C(=O)N2CCCC2CNc2ccccc2)cc1` (single isomer, unassigned) [Cpd 368], the “% Inh @ 1 μM” value (1 μM compound, canine TRPM8 HEK293, icilin) is 15.864%.

For `O=C(C(Nc1ccccc1F)c1ccc(Br)cc1)N1CCCC1c1ccccc1F` (single isomer, unassigned) [Cpd 159], the IC50 was 109 nM and 38 nM. Moreover, for the setting “canine TRPM8 HEK293, icilin”, the inhibition at 0.2 µM was 97% and the inhibition at 0.5 µM was found to be 94%.

In turn, `O=C(C(c1ccc(C(F)(F)F)cc1)N1CCc2ccccc21)N1Cc2ccccc2C1` (stereo not drawn) [Cpd 230] had an IC50 of 105 nM. In other words, the sub-micromolar range.

The compound `COc1ccc(NC(C(=O)N2Cc3ccccc3C2)c2ccc(Cl)cc2)cc1` (stereo not drawn) [Cpd 140] came in with an IC50 of 131 nM. Also, the inhibition at 0.5 µM (canine TRPM8 HEK293, icilin) was 97%.

Compound `O=C(C(Cc1ccccc1F)c1ccc(C(F)(F)F)cc1)N1CCCC1c1ccccc1F` (stereo not drawn) [Cpd 201, 3-(2-Fluoro-phenyl)-1-[2-(2-fluoro-phenyl)-pyrrolidin-1-yl]-2-(4-trifluoromethyl-phenyl)-propan-1-one] displayed an IC50 of 32 nM. Also, the inhibition at 0.2 µM (canine TRPM8 HEK293, icilin) amounted to 99%.

With `O=C(C(Nc1ccccc1)c1ccc(C(F)(F)F)cc1)N1CCCC1c1ccccc1Cl` (single isomer, unassigned) [Cpd 23], the half-maximal inhibitory concentration (IC50) was 17.2 nM. Moreover, the “% Inh @ 0.5 μM” value (canine TRPM8 HEK293, icilin, 0.5 µM) came to 103.39%.

As to `O=C(C(Nc1ccccc1F)c1ccc(-c2ccccc2)nc1)N1CCCC1c1ccccc1F` (single isomer, unassigned) [Cpd 308], the “% Inh @ 0.2 μM” value (canine TRPM8 HEK293, icilin) worked out at 11%.

Consider `O=C(C(Nc1ccc(F)cc1F)c1ccc(Cl)cc1)N1CCCC1c1ccccc1F` (stereo not drawn) [Cpd 123], for which the 50% inhibitory concentration (IC50) was 101 nM. In addition, under “canine TRPM8 HEK293, icilin”, the inhibition at 0.5 µM turned out to be 97%.

Turning to `Nc1ccc(C2CCCN2C(=O)C(Nc2ccccc2F)c2ccc(Cl)cc2)cc1` (stereo not drawn) [Cpd 290], it took 2 nM to reach half-maximal inhibition (IC50). For the same compound, the inhibition at 0.2 µM (canine TRPM8 HEK293, icilin) turned out to be 98%.

Turning to `Nc1ccc(C2CCCN2C(=O)C(Nc2ccccc2F)c2ccc(C(F)(F)F)cc2)cc1` (stereo not drawn) [Cpd 266], the half-maximal inhibitory concentration (IC50) worked out at 2 nM. The inhibition at 0.2 µM (canine TRPM8 HEK293, icilin) is 100%.

In the case of `O=C(C(c1ccc(C(F)(F)F)cc1)N1CCc2ccccc21)N1CCc2ccccc21` (stereo not drawn) [Cpd 42], the IC50 was found to be 231 nM. For the setting “canine TRPM8 HEK293, icilin”, the inhibition at 0.5 µM is 102% and the inhibition at 1 µM came out at 29%.

`O=C(O)c1ccc(-c2ccc(C(Nc3ccccc3F)C(=O)N3CCCC3c3ccccc3F)cc2)cc1` (stereo not drawn) [Cpd 295, 4′-{1-(2-Fluoro-phenylamino)-2-[2-(2-fluoro-phenyl)-pyrrolidin-1-yl]-2-oxo-ethyl}-biphenyl-4-carboxylic acid] had an IC50 of 47 nM. The inhibition at 0.2 µM (canine TRPM8 HEK293, icilin) was 90%.

`Cc1ccccc1NC(C(=O)N1CCc2ccccc21)c1ccc(C(F)(F)F)cc1` (stereo not drawn) [Cpd 34, 1-(Indolin-1-yl)-2-(o-tolylamino)-2-(4-(trifluoromethyl)phenyl)-ethanone] displayed a 50% inhibitory concentration (IC50) of 161 nM. Also, the inhibition at 0.5 µM (canine TRPM8 HEK293, icilin) turned out to be 102%.

With `O=C(C(Nc1ccc(Cl)cc1)c1ccc(C(F)(F)F)cc1)N1CCc2ccccc21` (racemic) [Cpd 39], the “% Inh @ 0.5 μM” value (canine TRPM8 HEK293, icilin) is given as 73.007%.

`CC(C)(C)c1ccc(C(Nc2ccccc2)C(=O)N2CCC(O)(c3ccccc3)CC2)cc1` (stereo not drawn) [Cpd 3] came in with a concentration for half-maximal inhibition (IC50) of 351 nM. Further, under “canine TRPM8 HEK293, icilin”, the inhibition at 1 µM came to 101%.

`O=C(C(c1ccc(C(F)(F)F)cc1)N1CCCc2ccccc21)N1CCCC1c1ccccc1` (stereo not drawn) [Cpd 291] showed a concentration for half-maximal inhibition (IC50) of 422 nM. Besides, the inhibition at 0.2 µM (canine TRPM8 HEK293, icilin) is 72%.

`COC(=O)c1ccc(C2CCCN2C(=O)C(Nc2ccccc2F)c2ccc(-c3ccccn3)cc2)cc1` (stereo not drawn) [Cpd 352]: the IC50 stood at 115 nM. In addition, the inhibition at 0.2 µM (canine TRPM8 HEK293, icilin) worked out at 88%.

Source of the values: patent publication US8143259B2, “Cold menthol receptor antagonists” (Janssen Pharmaceutica, NV, priority 2008, dated 2012).
